Consider 15 compounds from ChEMBL document CHEMBL1137582, “Quinazoline and benzimidazole MCH-1R antagonists” (Bioorg Med Chem Lett, 2007).

Active and inactive are the calls of the source. The rule behind the calls is not given here.

What is called Inhibition is the drop in the measured response relative to a control, in per cent. A low value points to a response near the control. The term inhibition denotes the percentage by which the read-out fell short of the control. The term IC50 denotes the midpoint of a concentration-inhibition curve. The solubility is how much of the substance goes into solution per volume. A high value points to much dissolved substance.

The target in data set [1] is T1, Melanin-concentrating hormone receptor 1 (Homo sapiens, UniProt Q99705). The data set is described as follows: Inhibition of 125I-[Phe13,Tyr19]-MCH binding to MCH-R1 expressing cell membranes at 1uM.
Data set [2] deals with T1, Melanin-concentrating hormone receptor 1. Nature of the data set: Displacement of 125I-[Phe13,Tyr19]-MCH from MCH-R1 expressing cell membranes. A general note: In a radioligand displacement assay an active substance lowers the binding of a labelled ligand.
The target is the same in data set [3]. Nature of the data set: Inhibition of MCH-mediated calcium influx into MCH-R1 expressing cells. The data set is classed as functional.
Data set [4] deals with T2, D(2) dopamine receptor (Homo sapiens, UniProt P14416). Nature of the data set: Inhibition of D2(L).
The target in data set [5] is 5-hydroxytryptamine receptor 2B (Homo sapiens, UniProt P41595). Nature of the data set: Inhibition of 5HT2B.
The target of a further data set is Cytochrome P450 2D6 (Homo sapiens, UniProt P10635). Nature of the data set: Inhibition of human CYP2D6 at 1uM. It counts as ADME.
The target of data set [6] is T3, 5-hydroxytryptamine receptor 2C (Homo sapiens) (UniProt P28335).
T3 sequence (whole entry): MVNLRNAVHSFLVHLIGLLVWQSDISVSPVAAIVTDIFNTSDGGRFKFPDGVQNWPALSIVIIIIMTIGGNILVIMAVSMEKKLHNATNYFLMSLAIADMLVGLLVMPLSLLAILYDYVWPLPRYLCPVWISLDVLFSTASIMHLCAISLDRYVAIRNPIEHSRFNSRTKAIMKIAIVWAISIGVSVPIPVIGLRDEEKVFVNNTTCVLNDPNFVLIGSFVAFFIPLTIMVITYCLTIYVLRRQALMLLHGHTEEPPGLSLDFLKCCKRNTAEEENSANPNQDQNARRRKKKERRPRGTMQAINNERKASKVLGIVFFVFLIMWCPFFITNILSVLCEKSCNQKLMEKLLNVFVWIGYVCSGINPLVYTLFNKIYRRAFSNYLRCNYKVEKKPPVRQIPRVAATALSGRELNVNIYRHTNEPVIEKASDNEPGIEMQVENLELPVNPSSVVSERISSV
The data set is described as follows: Inhibition of 5HT2C at 10uM.

In another data set the target is Cytochrome P450 2C9 (Homo sapiens, UniProt P11712). The data set is described as follows: Inhibition of human CYP2C9 at 1uM. The data set is classed as ADME.
Data set [7] addresses Adrenergic receptor alpha-1 (Homo sapiens) (UniProt P35348+P25100+P35368). Nature of the data set: Inhibition of adrenergic alpha-1 receptor at 10uM. The data set is classed as protein assay.
Data set [8] concerns the target 5-hydroxytryptamine receptor 2A (Homo sapiens) (UniProt P28223). The data set is described as follows: Inhibition of 5HT2A at 10uM.
The target of a further data set is T4, Cytochrome P450 1A2 (Homo sapiens, UniProt P05177).
T4 sequence (P05177 whole entry): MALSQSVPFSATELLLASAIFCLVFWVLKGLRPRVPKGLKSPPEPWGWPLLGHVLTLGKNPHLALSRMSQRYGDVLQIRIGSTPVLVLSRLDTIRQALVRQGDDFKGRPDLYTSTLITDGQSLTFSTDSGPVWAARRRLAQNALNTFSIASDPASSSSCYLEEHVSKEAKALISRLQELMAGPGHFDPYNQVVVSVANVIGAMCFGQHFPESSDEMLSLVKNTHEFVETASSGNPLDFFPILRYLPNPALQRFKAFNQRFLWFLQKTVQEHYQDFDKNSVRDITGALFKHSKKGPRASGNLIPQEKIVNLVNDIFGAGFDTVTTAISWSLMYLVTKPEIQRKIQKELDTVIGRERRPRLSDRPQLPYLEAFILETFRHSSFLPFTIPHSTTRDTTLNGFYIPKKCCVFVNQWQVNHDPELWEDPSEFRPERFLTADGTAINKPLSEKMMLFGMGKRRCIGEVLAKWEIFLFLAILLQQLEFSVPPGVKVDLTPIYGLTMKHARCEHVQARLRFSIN
The data set is described as follows: Inhibition of human CYP1A2 at 1uM. It counts as ADME.

Data set [9] concerns the target T5, Melanin-concentrating hormone receptor 2 (Homo sapiens, UniProt Q969V1). The data set is described as follows: Inhibition of MCH-R2 at 10uM.
In another data set the target is Cytochrome P450 2C19 (Homo sapiens, UniProt P33261). Nature of the data set: Inhibition of human CYP2C19 at 1uM. It counts as ADME.
The next data set has as its target Cytochrome P450 3A4 (Homo sapiens, UniProt P08684). Nature of the data set: Inhibition of human CYP3A4 at 1uM. The data set is classed as ADME.
Data set [10] addresses Voltage-gated inwardly rectifying potassium channel KCNH2 (Homo sapiens, UniProt Q12809). Nature of the data set: Inhibition of hERG in patch-clamp assay. The data set is classed as toxicity.
For data set [11], the target named is T2, D(2) dopamine receptor. The data set is described as follows: Inhibition of D2(L) at 10uM.
A short description of data set [12]: Solubility at pH7.4. The data set is classed as physicochemical. The settings on record: buffer, pH 7.4.
For data set [13], the target named is T6, Adrenergic receptor alpha-1 (Homo sapiens, UniProt P35348+P25100+P35368).
T6 sequence (P35348 whole entry): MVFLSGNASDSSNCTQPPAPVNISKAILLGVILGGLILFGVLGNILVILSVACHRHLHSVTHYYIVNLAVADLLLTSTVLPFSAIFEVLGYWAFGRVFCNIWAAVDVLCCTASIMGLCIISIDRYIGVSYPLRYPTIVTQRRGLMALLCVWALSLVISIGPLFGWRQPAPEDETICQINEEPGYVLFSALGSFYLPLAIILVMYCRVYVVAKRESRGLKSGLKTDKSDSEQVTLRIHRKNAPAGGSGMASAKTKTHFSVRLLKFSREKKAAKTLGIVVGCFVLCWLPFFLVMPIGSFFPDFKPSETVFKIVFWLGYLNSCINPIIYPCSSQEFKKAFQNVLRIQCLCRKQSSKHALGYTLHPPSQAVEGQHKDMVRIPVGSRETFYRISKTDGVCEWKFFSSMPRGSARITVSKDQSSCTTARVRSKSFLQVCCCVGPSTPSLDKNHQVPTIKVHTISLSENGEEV
T6 sequence (P25100 whole entry): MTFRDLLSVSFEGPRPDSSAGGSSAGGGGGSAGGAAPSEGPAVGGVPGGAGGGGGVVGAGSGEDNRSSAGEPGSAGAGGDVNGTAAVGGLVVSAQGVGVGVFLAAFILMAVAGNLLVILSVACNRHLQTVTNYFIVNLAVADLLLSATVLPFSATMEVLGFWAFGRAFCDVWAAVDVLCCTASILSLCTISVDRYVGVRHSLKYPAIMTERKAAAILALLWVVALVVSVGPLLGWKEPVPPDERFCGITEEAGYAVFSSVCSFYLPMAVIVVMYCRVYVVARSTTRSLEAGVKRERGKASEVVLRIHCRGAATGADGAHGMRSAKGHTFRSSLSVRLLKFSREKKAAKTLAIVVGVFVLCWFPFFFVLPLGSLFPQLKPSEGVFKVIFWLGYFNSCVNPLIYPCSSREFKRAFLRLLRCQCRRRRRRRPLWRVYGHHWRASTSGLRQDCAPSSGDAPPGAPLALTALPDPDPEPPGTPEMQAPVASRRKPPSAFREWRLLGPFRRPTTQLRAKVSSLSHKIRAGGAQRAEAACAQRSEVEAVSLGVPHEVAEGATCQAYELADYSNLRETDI
T6 sequence (P35368 whole entry): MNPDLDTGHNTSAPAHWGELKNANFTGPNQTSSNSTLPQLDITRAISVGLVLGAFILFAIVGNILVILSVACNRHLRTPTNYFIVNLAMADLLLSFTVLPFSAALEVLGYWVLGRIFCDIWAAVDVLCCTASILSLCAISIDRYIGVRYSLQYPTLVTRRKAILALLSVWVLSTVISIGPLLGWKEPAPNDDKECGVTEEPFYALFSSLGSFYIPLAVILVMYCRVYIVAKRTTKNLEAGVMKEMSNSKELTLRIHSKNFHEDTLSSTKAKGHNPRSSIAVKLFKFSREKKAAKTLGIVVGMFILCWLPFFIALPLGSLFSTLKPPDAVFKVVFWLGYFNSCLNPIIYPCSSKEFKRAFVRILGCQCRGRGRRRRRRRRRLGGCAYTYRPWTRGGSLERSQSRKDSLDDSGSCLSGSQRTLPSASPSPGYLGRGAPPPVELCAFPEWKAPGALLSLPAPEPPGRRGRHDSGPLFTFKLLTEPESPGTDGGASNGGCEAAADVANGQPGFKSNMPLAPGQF
The data set is described as follows: Inhibition of adrenergic alpha-1 receptor. The data set is classed as protein assay.

Data set [14] has as its target T5, Melanin-concentrating hormone receptor 2. The data set is described as follows: Inhibition of MCH-R2.

T1 sequence (Q99705 whole entry): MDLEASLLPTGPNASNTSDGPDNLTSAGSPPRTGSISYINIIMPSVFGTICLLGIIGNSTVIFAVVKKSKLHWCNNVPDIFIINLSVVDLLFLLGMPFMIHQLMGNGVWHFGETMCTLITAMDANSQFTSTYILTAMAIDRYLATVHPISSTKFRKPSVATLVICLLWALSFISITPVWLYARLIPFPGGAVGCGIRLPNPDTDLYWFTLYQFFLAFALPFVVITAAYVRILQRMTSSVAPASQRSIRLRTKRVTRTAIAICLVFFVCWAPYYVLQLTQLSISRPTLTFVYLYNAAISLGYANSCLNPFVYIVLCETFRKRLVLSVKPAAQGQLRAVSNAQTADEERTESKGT
Sequence of Cytochrome P450 2C9 (P11712 whole entry): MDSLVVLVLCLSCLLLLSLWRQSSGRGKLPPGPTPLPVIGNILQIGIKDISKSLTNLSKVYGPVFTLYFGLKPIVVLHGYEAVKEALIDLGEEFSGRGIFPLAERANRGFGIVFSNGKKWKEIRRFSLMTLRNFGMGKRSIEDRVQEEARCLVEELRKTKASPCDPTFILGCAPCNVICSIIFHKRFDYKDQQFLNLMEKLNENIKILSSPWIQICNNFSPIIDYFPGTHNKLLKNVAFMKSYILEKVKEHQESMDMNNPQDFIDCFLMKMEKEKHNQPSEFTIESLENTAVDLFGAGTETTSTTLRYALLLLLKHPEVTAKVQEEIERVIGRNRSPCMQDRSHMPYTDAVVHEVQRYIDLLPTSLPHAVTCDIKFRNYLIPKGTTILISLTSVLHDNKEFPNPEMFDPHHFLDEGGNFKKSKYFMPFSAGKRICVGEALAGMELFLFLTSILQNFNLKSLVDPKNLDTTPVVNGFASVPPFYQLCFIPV
Sequence of Cytochrome P450 2D6 (P10635 whole entry): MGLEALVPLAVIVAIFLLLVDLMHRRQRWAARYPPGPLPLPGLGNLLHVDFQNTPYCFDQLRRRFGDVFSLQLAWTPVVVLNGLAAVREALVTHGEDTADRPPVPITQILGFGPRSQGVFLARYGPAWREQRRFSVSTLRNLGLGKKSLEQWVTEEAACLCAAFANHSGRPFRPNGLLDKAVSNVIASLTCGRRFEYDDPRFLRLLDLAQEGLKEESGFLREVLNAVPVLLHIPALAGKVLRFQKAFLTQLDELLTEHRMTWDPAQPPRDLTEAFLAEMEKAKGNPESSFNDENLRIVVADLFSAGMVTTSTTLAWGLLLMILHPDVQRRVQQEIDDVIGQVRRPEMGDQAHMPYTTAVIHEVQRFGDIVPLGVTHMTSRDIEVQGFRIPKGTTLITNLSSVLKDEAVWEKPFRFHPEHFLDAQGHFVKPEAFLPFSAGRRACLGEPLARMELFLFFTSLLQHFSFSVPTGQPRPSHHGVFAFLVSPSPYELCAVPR
T5 sequence (Q969V1 whole entry): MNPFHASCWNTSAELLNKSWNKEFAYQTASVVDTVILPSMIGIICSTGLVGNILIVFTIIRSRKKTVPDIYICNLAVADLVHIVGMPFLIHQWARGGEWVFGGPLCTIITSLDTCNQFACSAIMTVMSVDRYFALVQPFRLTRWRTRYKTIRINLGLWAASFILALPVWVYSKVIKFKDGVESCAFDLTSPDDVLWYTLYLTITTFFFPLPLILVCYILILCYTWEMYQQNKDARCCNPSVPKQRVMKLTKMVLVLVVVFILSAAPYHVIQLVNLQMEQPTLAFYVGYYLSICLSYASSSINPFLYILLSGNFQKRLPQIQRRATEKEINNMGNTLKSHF
Sequence of Cytochrome P450 3A4 (P08684 whole entry): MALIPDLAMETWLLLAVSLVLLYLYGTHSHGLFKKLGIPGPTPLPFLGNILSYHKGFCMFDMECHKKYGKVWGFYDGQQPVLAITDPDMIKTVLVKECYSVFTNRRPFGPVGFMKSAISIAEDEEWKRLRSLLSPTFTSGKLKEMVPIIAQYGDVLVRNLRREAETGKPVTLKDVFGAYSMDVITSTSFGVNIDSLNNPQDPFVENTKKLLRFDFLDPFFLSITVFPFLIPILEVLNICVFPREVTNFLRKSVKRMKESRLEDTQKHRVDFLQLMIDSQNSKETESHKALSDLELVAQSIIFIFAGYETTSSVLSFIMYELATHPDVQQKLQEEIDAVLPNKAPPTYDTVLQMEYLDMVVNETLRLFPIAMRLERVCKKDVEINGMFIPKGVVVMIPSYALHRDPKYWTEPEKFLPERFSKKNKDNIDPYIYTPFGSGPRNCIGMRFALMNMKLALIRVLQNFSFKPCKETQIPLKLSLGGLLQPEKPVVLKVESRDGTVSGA
Sequence of 5-hydroxytryptamine receptor 2B (P41595 whole entry): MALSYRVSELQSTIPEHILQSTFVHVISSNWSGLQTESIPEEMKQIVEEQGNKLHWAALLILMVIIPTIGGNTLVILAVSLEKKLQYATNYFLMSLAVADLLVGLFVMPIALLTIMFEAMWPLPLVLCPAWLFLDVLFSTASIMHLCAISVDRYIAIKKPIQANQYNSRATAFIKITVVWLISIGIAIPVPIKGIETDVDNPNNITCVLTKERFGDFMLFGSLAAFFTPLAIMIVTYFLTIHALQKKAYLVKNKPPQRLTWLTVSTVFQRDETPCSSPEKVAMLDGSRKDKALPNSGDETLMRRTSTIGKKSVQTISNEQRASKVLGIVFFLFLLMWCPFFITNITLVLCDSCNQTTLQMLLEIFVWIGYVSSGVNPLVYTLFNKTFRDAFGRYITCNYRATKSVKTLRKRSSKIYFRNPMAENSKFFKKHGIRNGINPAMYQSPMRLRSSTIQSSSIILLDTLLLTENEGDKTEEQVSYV
Sequence of 5-hydroxytryptamine receptor 2A (Homo sapiens) (P28223 whole entry): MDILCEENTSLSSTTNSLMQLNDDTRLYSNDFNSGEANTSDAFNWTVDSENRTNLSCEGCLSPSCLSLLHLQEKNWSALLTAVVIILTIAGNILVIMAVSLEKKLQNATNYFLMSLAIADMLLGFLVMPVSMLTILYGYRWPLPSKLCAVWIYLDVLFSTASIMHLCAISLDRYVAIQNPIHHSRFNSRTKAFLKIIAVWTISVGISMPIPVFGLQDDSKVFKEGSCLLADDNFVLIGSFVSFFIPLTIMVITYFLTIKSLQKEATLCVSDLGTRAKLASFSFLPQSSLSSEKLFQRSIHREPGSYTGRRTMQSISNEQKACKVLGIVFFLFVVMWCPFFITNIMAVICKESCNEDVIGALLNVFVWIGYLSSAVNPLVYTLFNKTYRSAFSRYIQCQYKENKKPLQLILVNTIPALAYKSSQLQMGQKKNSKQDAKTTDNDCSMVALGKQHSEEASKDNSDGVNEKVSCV
T2 sequence (P14416 whole entry): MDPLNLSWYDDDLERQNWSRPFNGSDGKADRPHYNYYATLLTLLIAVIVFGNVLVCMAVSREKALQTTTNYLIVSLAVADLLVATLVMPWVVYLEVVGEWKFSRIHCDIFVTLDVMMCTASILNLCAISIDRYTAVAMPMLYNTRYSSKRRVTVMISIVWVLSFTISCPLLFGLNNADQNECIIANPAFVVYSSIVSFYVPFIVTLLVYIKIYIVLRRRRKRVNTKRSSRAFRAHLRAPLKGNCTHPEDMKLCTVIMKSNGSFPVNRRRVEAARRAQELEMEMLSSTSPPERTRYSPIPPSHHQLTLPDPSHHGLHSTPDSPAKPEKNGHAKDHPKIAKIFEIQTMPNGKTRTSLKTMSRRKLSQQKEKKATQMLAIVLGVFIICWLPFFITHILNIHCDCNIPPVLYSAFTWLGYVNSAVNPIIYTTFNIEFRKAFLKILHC
Sequence of Cytochrome P450 2C19 (P33261 whole entry): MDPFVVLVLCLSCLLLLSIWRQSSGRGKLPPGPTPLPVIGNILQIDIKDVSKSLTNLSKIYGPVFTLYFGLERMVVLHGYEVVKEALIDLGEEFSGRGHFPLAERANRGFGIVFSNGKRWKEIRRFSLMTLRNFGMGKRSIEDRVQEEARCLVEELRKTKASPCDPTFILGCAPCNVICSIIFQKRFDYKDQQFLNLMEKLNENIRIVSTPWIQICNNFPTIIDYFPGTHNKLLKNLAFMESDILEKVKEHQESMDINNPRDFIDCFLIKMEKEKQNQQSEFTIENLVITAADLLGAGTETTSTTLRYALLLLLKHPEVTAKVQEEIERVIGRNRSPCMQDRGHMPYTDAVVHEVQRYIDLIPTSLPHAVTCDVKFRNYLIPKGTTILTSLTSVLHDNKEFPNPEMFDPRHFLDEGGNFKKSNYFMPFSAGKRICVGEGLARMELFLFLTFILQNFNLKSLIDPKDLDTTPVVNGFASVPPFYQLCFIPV

The compound `Cc1nc(N2CCCC2)nc2ccc(NC(=O)COc3cccc(Cl)c3)cc12` had an Inhibition in data set [1] of 7%.

As to `O=C(COc1ccc(C(F)(F)F)cc1)Nc1ccc2nc(N3CCOCC3)cnc2c1`, the inhibition entry in [1] was “inactive”.

For the compound `Cc1nc(N2CCCC2)nc2ccc(NC(=O)COc3ccc(C(F)(F)F)cc3)cc12`, the IC50 in data set [2] turned out to be 0.165 µM; in [3], 0.1 µM.

On to `Cc1nc(N(C)CCN(C)C)nc2ccc(NC(=O)COc3ccc(C(F)(F)F)cc3)cc12`, for which the IC50 turned out to be 0.26 µM in data set [2] and 0.164 µM in data set [3].

With `Cc1nc(N2CCCC2)nc2ccc(NC(=O)COc3ccc(Cl)cc3)cc12`, the IC50 is 0.25 µM in [2]; above 100 µM against D(2) dopamine receptor [4]; 1.9 µM in data set [5]; 0.058 µM in data set [3]; 10 µM in [10]. For the same compound, the Inhibition result at Cytochrome P450 2D6, at Cytochrome P450 2C9, on Cytochrome P450 1A2, on Cytochrome P450 2C19 and on Cytochrome P450 3A4 was “Not Active” each time. Besides, the inhibition in [6] was found to be 39%; in [7] it was 28%; in [8], 0%; in data set [9], 2%.

Consider `O=C(COc1ccc(Cl)cc1)Nc1ccc2nc(N3CCOCC3)ccc2c1`, for which the IC50 in data set [2] was determined as 0.961 µM.

`Cc1cc(N2CCCC2)nc2ccc(NC(=O)COc3ccc(C(F)(F)F)cc3)cc12` showed an IC50 in data set [2] of 0.015 µM.

On to `Cc1nc(N2CCCC2)nc2ccc(NC(=O)COc3ccccc3Cl)cc12`, for which, in data set [2], the IC50 came to 1.93 µM.

As for `O=C(COc1ccc(Cl)cc1)Nc1ccc2nc(N3CCOCC3)cnc2c1`, the inhibition entry in data set [1] was “inactive”.

On to `Cn1c(N2CCCC2)nc2ccc(NC(=O)COc3ccc(C(F)(F)F)cc3)cc21`, for which the figures for the IC50 in data set [2] and in data set [3] were 0.04 µM and 0.009 µM, respectively.

As to `O=C(COc1ccc(C(F)(F)F)cc1)Nc1ccc2nc(N3CCCC3)[nH]c2c1`, the IC50 in [2] worked out at 0.035 µM; in [3], 0.009 µM.

`COc1ccc(OCC(=O)Nc2ccc3nc(N4CCCC4)nc(C)c3c2)cc1`: the IC50 in [2] came to 0.39 µM; in [3] it was 0.041 µM.

For the compound `O=C(COc1ccc(C(F)(F)F)cc1)Nc1ccc2nc(N3CCOCC3)ccc2c1`, in data set [2], the IC50 was 0.172 µM.

`CC(C)Nc1nc2ccc(NC(=O)COc3ccc(C(F)(F)F)cc3)cc2n1C`: the IC50 worked out at 0.07 µM in [2] and 0.101 µM in data set [3].

Turning to `CN(C)CCN(C)c1nc2ccc(NC(=O)COc3ccc(C(F)(F)F)cc3)cc2n1C`, the IC50 in [2] is 0.025 µM; in [5] it was 1.5 µM; in data set [13], 27 µM; in data set [14] it was above 30 µM; in [3] it was 0.028 µM. The inhibition turned out to be 19% against D(2) dopamine receptor [11], 7% in data set [6] and 22% in data set [8]. The solubility in data set [12] was above 1 mg/mL. Besides, the Inhibition result at Cytochrome P450 2D6, on Cytochrome P450 2C9, at Cytochrome P450 1A2, on Cytochrome P450 2C19 and at Cytochrome P450 3A4 was “Not Active” throughout.
